The numbers were not newly measured in patent publication US20150079197A1, “MEDICINE COMPRISING COMBINATION OF GENERAL ANESTHETIC AND HYDROGEN” (MARUISHI PHARMACEUTICAL CO., LTD., priority 2012, published 2015), which cites them from elsewhere.

In one data set the test system is degenerated neurons. Particulars: neonatal rats, Non Patent Literature 30.

Turning to `FC(F)OC(Cl)C(F)(F)F` (stereo not shown) [isoflurane], in the data set with developing brains (cortex, as compared with the control), the “increase in the apoptosis level in the cortex” value was 4 fold. The “increase in the apoptosis level in the hippocampus” value with developing brains (hippocampus) is reported as 4 fold. The neurodegeneration result in the data set on degenerated neurons was “dose-dependent neurodegeneration”.

On to `[N-]=[N+]=O` [nitrous oxide], for which the neurodegeneration entry with developing brains (alone) was “no neurodegeneration”.
